Laboratory results: the supplement of paper PMC10307832

What was measured:
Assay in all cases: relative viability (nuclei count vs DMSO), 5 days (fraction); higher = more cells survive
[1] = compound: CC1=CN2C(=O)C=C(N=C2C(=C1)C(C)NC3=CC=CC=C3)N4CCOCC4 [TGX 221] + Nc1nc2[nH]cc(CCc3ccc(C(=O)N[C@@H](CCC(=O)O)C(=O)O)cc3)c2c(=O)[nH]1 [Pemetrexed] (partner 0.2 µM)
Outline: (§1)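 Lung cancer cell lines were seeded in 1536-well plates and dosed by pin tool the next day, with either a single drug or a fixed anchor-drug dose combined with five library-drug doses (not always all listed) spaced in √10 steps. Five days later, one step fixed the cells and stained their nuclei (final 0.05% Triton X-100, 1% formaldehyde, 1 ug/ml Hoechst), and nuclei were counted on 4× images. Relative viability is the nuclei count in treated wells divided by the count in vehicle wells, and each value is the median of duplicate plates.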

[2] = compound: O=C(CCCCCCNC(=O)c1cnc(N(c2ccccc2)c2ccccc2)nc1)NO [Ricolinostat] + CC(C)C[C@H](NC(=O)[C@H](Cc1ccccc1)NC(=O)c1cnccn1)B(O)O [Bortezomib] (partner 0.002 µM)
Outline: as §1

[3] = compound: O=C(CCCCCCNC(=O)c1cnc(N(c2ccccc2)c2ccccc2)nc1)NO [Ricolinostat] + CS(=O)(=O)CCNCc1ccc(-c2ccc3ncnc(Nc4ccc(OCc5cccc(F)c5)c(Cl)c4)c3c2)o1 [Lapatinib] (partner 2 µM)
Outline: as §1

[4] = compound: O=C(CCCCCCNC(=O)c1cnc(N(c2ccccc2)c2ccccc2)nc1)NO [Ricolinostat] + Cc1cc(Nc2cc(N3CCN(C)CC3)nc(Sc3ccc(NC(=O)C4CC4)cc3)n2)n[nH]1 [Tozasertib] (partner 0.1 µM)
Outline: as §1

Row | Cell Line | relative viability ([1]; first compound 0.08 µM) | relative viability ([1]; first compound 0.253 µM) | relative viability ([1]; first compound 0.8 µM) | relative viability ([1]; first compound 2.53 µM) | relative viability ([1]; first compound 8 µM) | relative viability ([2]; first compound 0.253 µM) | relative viability ([2]; first compound 0.8 µM) | relative viability ([2]; first compound 2.53 µM) | relative viability ([3]; first compound 0.253 µM) | relative viability ([3]; first compound 0.8 µM) | relative viability ([3]; first compound 2.53 µM) | relative viability ([4]; first compound 0.253 µM) | relative viability ([4]; first compound 0.8 µM) | relative viability ([4]; first compound 2.53 µM) | relative viability ([2]; first compound 0.08 µM) | relative viability ([3]; first compound 0.08 µM) | relative viability ([4]; first compound 0.08 µM)
1 | HCC-78 | 0.827 | 0.928 | 0.771 | 0.877 | 0.921 | 0.475 | 0.455 | 0.686 | 0.803 | 0.699 | 0.385 | 0.33 | 0.347 | 0.27 |  |  | 
2 | HCC-366 | 0.158 | 0.146 | 0.184 | 0.165 | 0.16 | 1.11 | 0.904 | 0.639 | 1.02 | 0.918 | 0.363 | 0.0847 | 0.0896 | 0.0599 | 0.906 | 1.02 | 0.241
3 | HCC-827 | 0.264 | 0.294 | 0.272 | 0.248 | 0.249 | 0.981 | 0.995 | 1.03 | 0.184 | 0.173 | 0.155 | 0.413 | 0.409 | 0.379 | 1.01 | 0.173 | 0.354
4 | HOP-62 | 0.315 | 0.279 | 0.289 | 0.438 | 0.376 | 0.595 | 0.799 | 0.532 | 0.88 | 0.923 | 0.843 | 0.344 | 0.35 | 0.312 | 0.501 | 0.935 | 0.374
5 | IA-LM |  |  |  |  |  | 0.696 | 0.73 | 0.594 | 0.841 | 0.542 | 0.398 |  |  |  | 0.628 |  | 
6 | LCLC-103H | 0.441 | 0.481 | 0.451 | 0.455 | 0.5 | 0.88 | 1.09 | 0.927 |  |  |  | 0.401 | 0.393 | 0.337 | 0.79 |  | 0.443
7 | LK-2 | 0.232 | 0.279 | 0.219 | 0.275 | 0.247 |  |  |  | 1.2 | 0.941 | 0.913 | 0.181 | 0.202 | 0.174 |  | 0.908 | 0.181
8 | NCI-H358 | 0.189 | 0.167 | 0.168 | 0.166 | 0.174 |  |  |  | 0.505 | 0.501 | 0.519 | 0.0893 | 0.107 | 0.0955 |  | 0.311 | 0.0975
9 | NCI-H441 | 0.238 | 0.224 | 0.231 | 0.28 | 0.266 | 0.341 | 0.342 | 0.25 |  |  |  | 0.69 | 0.561 | 0.474 | 0.596 |  | 
10 | NCI-H522 | 0.811 | 1.01 | 1.13 | 1 | 0.915 |  |  |  |  |  |  | 0.565 | 0.54 | 0.641 |  |  | 0.616
11 | NCI-H727 |  |  |  |  |  | 1.1 | 0.811 | 0.911 | 1.02 | 0.862 | 0.77 | 0.704 | 0.734 | 0.563 | 0.554 | 0.523 | 0.448
12 | NCI-H1299 |  |  |  |  |  | 0.955 | 1.04 | 0.937 | 0.871 | 0.902 | 0.895 |  |  |  | 0.998 | 0.941 | 
13 | NCI-H1395 | 0.73 | 0.766 | 0.709 | 0.604 | 0.724 |  |  |  | 1.11 | 0.881 | 0.833 | 0.835 | 0.741 | 0.671 |  |  | 
14 | NCI-H1563 | 0.646 | 0.705 | 0.534 | 0.726 | 0.733 | 0.758 | 0.837 | 0.787 | 0.927 | 0.97 | 0.834 |  |  |  | 0.754 | 0.898 | 
15 | NCI-H1623 |  |  |  |  |  |  |  |  |  |  |  | 0.462 | 0.477 | 0.424 |  |  | 0.489
16 | NCI-H1648 |  | 0.883 | 0.811 | 0.722 | 0.674 |  |  |  |  |  |  | 0.536 | 0.366 | 0.237 |  |  | 0.273
17 | NCI-H1703 |  |  |  |  |  | 0.299 | 0.261 | 0.172 | 0.928 | 1.06 | 1.07 |  |  |  |  | 1.03 | 
18 | NCI-H1793 | 0.667 | 0.64 | 0.754 | 0.604 | 0.68 |  |  |  | 0.739 | 0.61 | 0.895 | 0.256 | 0.27 | 0.244 |  |  | 
19 | NCI-H1944 |  | 0.552 | 0.533 | 0.6 | 0.562 |  |  |  | 0.85 | 0.819 | 0.854 | 0.246 | 0.221 | 0.23 |  | 0.638 | 0.245
20 | NCI-H2170 | 0.263 | 0.252 | 0.213 | 0.271 | 0.268 |  |  |  | 0.277 | 0.28 | 0.264 | 0.61 | 0.622 | 0.723 |  | 0.23 | 0.758
21 | NCI-H2342 | 0.681 | 0.792 | 0.748 | 0.708 | 0.754 |  |  |  |  |  |  | 0.461 | 0.401 | 0.426 |  |  | 0.496
22 | SK-MES-1 | 0.932 | 0.925 | 0.948 | 0.842 | 0.693 |  |  |  | 0.466 | 0.439 | 0.456 | 0.795 | 0.877 | 0.628 |  | 0.403 | 0.833
23 | SW 900 |  | 0.459 | 0.469 | 0.41 | 0.415 |  |  |  |  |  |  | 0.509 | 0.393 | 0.459 |  |  | 0.596
